Results as given in ChEMBL document CHEMBL1201862, “PubChem BioAssay data set” (2004).
Calls of active or inactive are those of the source.

Assays:
[1] = target: T1, Neuropeptide Y receptor type 1 (Homo sapiens, UniProt P25929); test: Fluorescence-based counterscreen for agonists of NPY-Y2: cell-based high-throughput dose response assay for agonists of NPY-Y1.; format: functional
T1 sequence (P25929 whole entry): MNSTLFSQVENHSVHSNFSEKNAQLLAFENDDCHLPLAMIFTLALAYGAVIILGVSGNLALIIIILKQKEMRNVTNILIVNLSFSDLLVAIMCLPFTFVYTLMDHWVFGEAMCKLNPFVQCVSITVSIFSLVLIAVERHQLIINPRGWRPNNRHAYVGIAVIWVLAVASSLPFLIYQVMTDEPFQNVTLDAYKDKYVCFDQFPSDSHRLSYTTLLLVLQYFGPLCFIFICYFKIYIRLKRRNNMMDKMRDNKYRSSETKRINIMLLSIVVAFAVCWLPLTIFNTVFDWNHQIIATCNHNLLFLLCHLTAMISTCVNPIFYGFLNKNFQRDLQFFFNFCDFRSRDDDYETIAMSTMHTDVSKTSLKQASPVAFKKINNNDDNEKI

[2] = viability of uninfected HEp-2 cells – cell-based, HTS, cytotoxicity control for RSV inhibitor project, dose response (AID 2410); format: functional; conditions: human respiratory syncytial virus
H4 = test: Luminescence Cell-Based Dose Response HTS to Identify Activators of 5'UTR Stem-Loop Driven Prion Protein mRNA Translation in H4 Neuroglioblastoma Cells. [Related pubchem assays: 1829 (Project Summary), 1814 (Primary HTS)]; format: functional; conditions: Homo sapiens
HEK293 = test: Fluorescence-based counterscreen for potentiators or agonists of NPY-Y2: cell-based high-throughput dose response assay to identify inhibitors of cyclic nucleotide gated ion channel (CNGC) activity. In this assay, the parental HEK293 cell line transfected with a cyclic-nucleotide gated ion channel (CNGC)-based cAMP sensor is used to measure inhibition of isoproterenol-induced CNGC activity by test compound.; format: functional; conditions: Homo sapiens;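 also: stimulus is 1 µM isoproterenol at EC100 plus PDE inhibitor Ro 20-1724 at 25 µM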
[3] = microbe, parasite or virus in culture; format: functional; conditions: Mycobacterium tuberculosis
[4] = Luminescence Cell-Based Dose Confirmation HTS to Identify Activators of 5'UTR Stem-Loop Driven Alpha-Synuclein mRNA Translation in H4 Neuroglioblastoma Cells. [Related pubchem assays: 1829 (Project Summary), 1814 (Primary HTS)]; format: functional
[5] = target: T2, Neuropeptide Y receptor type 2 (Homo sapiens, UniProt P49146); test: Fluorescence-based cell-based high-throughput dose response assay for agonists of NPY-Y2. [Related pubchem assays: 1703 (Screening assay (CNGC inhibitors).), 1359 (Screening assay (NPY-Y2 potentiators or agonists).), 1304 (Screening assay (NPY-Y1 potentiators or agonists).), 1710 (Screening assay (NPY-Y2 agonists).), 1791 (Summary AID.)]; format: functional
T2 sequence (P49146 whole entry): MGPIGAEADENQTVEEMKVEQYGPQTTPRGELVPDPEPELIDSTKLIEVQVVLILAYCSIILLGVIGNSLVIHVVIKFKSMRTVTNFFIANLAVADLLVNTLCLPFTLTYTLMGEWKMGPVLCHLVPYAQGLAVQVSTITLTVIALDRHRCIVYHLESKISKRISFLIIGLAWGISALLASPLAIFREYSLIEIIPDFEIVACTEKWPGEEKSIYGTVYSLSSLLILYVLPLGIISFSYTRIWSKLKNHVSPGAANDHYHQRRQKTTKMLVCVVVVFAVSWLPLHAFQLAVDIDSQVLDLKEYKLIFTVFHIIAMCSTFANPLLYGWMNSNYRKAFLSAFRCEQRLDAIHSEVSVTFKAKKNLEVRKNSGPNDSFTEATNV

[6] = Luminescence Cell-Based Dose Response HTS to Identify Activators of Luciferase Translation or Activity in H4 […] Cells. [Related pubchem assays: 1829 (Project Summary), 1814 (Primary HTS)]; format: functional
[7] = target: Peroxisome proliferator-activated receptor gamma/Nuclear receptor coactivator 3 (Homo sapiens, UniProt P37231); format: functional;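 also: agonist potency for raising coactivator recruitment to the receptor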
Chain of Peroxisome proliferator-activated receptor gamma/Nuclear receptor coactivator 3 (P37231 whole entry): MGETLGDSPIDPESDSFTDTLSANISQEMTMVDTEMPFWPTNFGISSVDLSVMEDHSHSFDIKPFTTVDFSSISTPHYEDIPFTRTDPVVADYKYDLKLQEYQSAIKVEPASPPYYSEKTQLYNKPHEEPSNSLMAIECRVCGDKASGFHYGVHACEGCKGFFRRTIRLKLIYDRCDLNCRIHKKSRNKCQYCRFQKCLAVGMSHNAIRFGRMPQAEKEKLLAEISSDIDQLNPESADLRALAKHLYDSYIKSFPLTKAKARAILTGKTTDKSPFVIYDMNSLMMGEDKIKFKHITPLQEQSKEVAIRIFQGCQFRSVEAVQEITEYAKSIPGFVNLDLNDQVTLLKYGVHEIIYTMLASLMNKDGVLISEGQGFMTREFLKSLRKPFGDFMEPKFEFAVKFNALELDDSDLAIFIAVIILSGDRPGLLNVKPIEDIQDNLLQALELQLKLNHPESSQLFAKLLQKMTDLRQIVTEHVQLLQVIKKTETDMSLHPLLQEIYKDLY
Chain of Peroxisome proliferator-activated receptor gamma/Nuclear receptor coactivator 3 (Q9Y6Q9 whole entry, further chain): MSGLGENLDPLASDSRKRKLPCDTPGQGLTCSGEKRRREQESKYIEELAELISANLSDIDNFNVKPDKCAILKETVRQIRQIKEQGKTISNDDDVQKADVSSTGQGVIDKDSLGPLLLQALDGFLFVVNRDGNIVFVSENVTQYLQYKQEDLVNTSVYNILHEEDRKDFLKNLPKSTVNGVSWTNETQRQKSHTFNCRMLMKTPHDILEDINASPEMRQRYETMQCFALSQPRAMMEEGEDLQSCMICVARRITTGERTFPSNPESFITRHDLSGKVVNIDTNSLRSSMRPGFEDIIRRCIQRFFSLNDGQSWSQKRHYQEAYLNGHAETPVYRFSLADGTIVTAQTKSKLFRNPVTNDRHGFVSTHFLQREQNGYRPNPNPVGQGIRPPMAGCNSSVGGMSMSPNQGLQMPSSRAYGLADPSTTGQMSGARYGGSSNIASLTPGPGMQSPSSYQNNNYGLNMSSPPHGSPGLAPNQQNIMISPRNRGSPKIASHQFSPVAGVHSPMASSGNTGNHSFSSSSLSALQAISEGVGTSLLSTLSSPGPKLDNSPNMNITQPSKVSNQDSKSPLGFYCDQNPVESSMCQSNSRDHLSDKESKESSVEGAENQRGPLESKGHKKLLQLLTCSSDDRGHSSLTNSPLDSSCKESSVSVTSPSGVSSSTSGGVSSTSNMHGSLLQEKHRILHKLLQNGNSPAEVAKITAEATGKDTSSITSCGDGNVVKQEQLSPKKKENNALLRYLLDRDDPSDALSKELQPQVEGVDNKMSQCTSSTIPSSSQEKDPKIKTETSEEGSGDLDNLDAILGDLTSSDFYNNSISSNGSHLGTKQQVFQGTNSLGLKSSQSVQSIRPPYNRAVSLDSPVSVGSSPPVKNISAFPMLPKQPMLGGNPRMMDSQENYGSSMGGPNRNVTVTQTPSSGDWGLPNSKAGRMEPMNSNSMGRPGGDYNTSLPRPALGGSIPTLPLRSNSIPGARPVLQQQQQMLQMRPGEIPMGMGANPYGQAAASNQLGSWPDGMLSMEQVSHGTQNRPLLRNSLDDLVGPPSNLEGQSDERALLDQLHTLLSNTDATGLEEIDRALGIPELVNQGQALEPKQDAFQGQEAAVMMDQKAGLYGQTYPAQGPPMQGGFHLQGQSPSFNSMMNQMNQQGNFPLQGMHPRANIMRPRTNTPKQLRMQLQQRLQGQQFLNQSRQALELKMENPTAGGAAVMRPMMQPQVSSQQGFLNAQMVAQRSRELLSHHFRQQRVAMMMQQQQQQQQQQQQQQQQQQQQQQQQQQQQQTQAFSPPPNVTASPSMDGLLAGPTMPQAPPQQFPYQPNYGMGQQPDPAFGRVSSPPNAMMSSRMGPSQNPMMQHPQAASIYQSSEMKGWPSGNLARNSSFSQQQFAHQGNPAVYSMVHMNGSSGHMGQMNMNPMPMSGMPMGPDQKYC

[8] = target: Peroxisome proliferator-activated receptor gamma/Nuclear receptor coactivator 2 (Homo sapiens, UniProt P37231); format: functional;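 also: agonist potency for raising coactivator recruitment to the receptor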
Chain of Peroxisome proliferator-activated receptor gamma/Nuclear receptor coactivator 2 (P37231 whole entry): as the sequence (P37231 whole entry) above
Chain of Peroxisome proliferator-activated receptor gamma/Nuclear receptor coactivator 2 (Q15596 whole entry, further chain): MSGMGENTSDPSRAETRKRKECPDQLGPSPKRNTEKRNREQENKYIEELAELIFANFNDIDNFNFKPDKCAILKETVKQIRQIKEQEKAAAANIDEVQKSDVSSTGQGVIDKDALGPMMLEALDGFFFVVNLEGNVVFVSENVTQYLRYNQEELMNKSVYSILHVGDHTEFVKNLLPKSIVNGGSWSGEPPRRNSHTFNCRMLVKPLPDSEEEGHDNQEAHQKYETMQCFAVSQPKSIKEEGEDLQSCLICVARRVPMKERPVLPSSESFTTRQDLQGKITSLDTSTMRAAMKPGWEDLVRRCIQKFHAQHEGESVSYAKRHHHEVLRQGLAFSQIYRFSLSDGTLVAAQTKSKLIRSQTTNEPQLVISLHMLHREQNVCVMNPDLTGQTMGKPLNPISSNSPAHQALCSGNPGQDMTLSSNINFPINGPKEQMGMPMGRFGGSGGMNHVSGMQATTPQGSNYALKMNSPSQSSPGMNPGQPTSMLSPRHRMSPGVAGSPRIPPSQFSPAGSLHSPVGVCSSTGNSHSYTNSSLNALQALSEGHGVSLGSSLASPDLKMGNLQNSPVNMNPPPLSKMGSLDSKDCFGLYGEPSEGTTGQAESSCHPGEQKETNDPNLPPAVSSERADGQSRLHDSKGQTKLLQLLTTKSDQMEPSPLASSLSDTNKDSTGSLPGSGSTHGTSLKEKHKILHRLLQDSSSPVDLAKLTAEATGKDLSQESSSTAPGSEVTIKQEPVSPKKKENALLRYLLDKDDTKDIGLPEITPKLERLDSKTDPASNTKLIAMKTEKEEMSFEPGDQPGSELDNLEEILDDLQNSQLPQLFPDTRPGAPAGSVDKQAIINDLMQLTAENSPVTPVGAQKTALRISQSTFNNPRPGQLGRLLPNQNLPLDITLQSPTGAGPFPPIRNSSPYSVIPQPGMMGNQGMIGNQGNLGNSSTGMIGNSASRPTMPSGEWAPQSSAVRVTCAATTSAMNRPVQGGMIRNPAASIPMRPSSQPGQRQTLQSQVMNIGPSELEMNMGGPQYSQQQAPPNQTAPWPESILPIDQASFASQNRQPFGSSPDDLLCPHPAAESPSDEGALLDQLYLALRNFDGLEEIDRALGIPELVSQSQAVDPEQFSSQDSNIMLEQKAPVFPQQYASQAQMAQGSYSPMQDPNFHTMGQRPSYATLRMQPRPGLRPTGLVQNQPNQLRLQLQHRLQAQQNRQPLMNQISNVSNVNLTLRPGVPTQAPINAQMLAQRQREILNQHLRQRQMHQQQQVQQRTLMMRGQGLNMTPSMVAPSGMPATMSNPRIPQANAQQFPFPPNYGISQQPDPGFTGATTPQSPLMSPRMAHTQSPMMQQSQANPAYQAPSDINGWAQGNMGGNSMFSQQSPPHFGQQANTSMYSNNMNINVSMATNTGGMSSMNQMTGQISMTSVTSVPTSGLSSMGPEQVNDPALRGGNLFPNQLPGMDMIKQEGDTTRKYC

[9] = target: Peroxisome proliferator-activated receptor gamma/Nuclear receptor coactivator 1 (Homo sapiens, UniProt P37231); format: functional;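 also: agonist potency as compounds enhance coactivator SRC-1 recruitment to PPARgamma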
Ion channel NompC = Ion channel NompC (Danio rerio, UniProt Q7T1G6); test: Fluorescence counterscreen assay for TRPML3 agonists: dose response cell-based high-throughput screening assay to identify agonists of the transient receptor potential channel N1 (TRPN1). [Related pubchem assays: 1526, 1424, 1448 ]; format: functional
Mucolipin-3 = Mucolipin-3 (Homo sapiens, UniProt Q8TDD5); test: Dose response cell-based high-throughput screening assay for agonists of the transient receptor potential channel ML3 (TRPML3). [Related pubchem assays: 1526, 1424, 1448 ]; format: functional
Chain of Mucolipin-3 (Q8TDD5 whole entry): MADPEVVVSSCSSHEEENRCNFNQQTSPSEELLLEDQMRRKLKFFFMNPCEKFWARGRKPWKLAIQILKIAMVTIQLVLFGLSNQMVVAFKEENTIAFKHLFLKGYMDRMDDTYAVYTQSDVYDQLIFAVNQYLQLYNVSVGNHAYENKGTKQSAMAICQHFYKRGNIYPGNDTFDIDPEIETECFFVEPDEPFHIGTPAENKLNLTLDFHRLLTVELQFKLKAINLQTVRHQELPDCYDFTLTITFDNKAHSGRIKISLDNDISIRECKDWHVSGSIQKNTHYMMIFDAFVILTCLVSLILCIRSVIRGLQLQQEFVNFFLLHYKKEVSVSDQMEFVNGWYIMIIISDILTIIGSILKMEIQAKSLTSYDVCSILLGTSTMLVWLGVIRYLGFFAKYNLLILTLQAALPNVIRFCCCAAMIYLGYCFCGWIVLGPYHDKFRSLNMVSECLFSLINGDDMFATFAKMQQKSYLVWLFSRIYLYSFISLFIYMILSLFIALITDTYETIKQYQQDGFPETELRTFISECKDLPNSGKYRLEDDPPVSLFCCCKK

[10] = A High Throughput Confirmatory Assay used to Identify Novel Compounds that Inhibit Mycobacterium Tuberculosis in the absence of Glycerol.; format: functional
[11] = antiviral protection against BTV-induced cell death – arbovirus, BSR cells, confirmation (AID 1250); format: functional;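 also: protection from viral cytopathic effect measured as cell viability by ATP luminescence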
[12] = Luminescence Cell-Based Dose Response HTS to Identify Inhibitors of 5'UTR Stem-Loop Driven Prion Protein mRNA Translation in H4 Neuroglioblastoma Cells. [Related pubchem assays: 1827 (Project Summary), 1813 (Primary HTS)]; format: functional
[13] = viability loss in HEK293 cells – cell-based, plate reader, cherry-picked samples, cytotoxicity control, dose response (AID 743446); format: functional
[14] = Luminescence-based counterscreen assay for KLF5 inhibitors: dose response cell-based high throughput screening assay to identify cytotoxic compounds using the IEC-6 intestinal epithelial cell line. [Related pubchem assays: 1700 (Primary screen.), 1834 (Confirmation screen.), 1858 (Summary AID.), 1905 (Counterscreen.)]; format: functional
[15] = target: T3, Heat shock factor protein 1 (Mus musculus, UniProt P38532); test: decrease of HSF1-responsive luciferase luminescence – cell-based, NIH3T3, dose retest, confirmation (AID 2382); format: functional;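 also: NIH3T3 fibroblasts with HSF1-driven luciferase reporter stressed by proteasome inhibitor MG132; luminescence from HSF1-driven luciferase expression after 8 hours of MG132 stress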
T3 sequence (P38532 whole entry): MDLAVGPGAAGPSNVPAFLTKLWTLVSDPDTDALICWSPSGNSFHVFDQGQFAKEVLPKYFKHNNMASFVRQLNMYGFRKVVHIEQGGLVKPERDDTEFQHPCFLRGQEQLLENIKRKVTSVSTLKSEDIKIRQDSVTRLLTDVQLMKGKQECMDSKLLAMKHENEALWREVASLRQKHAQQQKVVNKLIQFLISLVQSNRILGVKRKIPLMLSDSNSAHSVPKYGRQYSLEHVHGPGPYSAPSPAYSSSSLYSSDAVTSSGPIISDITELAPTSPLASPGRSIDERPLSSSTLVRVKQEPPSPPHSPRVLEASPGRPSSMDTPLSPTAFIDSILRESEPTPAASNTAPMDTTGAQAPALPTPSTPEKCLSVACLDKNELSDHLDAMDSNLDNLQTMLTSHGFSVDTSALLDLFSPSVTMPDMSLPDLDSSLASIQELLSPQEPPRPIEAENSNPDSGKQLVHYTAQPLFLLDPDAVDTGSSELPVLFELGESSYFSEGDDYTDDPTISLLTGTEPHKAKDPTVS

[16] = blockade of melanocortin 4 receptor signaling – cell-based, plate reader, cherry pick, counter-screen for LGR2 antagonist project, dose response (AID 743444); format: functional;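 also: transfected HEK 293 cells stimulated with alpha-MSH peptide; potency of inhibitors of the alpha-MSH evoked signal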
[17] = A549 cell cytotoxicity, dose response, cytotoxicity control, plate reader, cherry-pick, antagonist series (AID 743412); format: functional, cell-based
[18] = blockers of bursicon-stimulated LGR2 cAMP reporter – cell-based, HEK293, CRE-luciferase reporter, cherry pick, set 2, dose response (AID 743343); format: functional;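 also: transfected cells were stimulated with diluted bursicon conditioned medium after compound addition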
[19] = luciferase reporter signal suppression in cells – H4 neuroglioma cells, luminescence, dose response (AID 1990); format: functional, cell-based
INS1 = test: INS-1E survival protection against cytokine death – cell-based, luminescence, retest, dose response (AID 449756); format: functional; conditions: Rattus norvegicus;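 also: cell death triggered by IL-1 beta plus TNF-alpha plus IFN-gamma mixture; protective hits raise ATP signal compared with cytokine alone wells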

CCn1c2ccccc2c2cc(NC(=O)CN(C)CC(=O)Nc3ccc(N4CCOCC4)cc3)ccc21
EC50 [1]: > 35.4 µM (not active)
CC50 [2]: 32.7 µM (active)
EC50 (H4): > 120 µM (not active)
EC50 (HEK293): > 35.4 µM (not active)
CC50 [3]: 37.5 µM (active)
EC50 [4]: > 120 µM (not active)
EC50 [5]: > 35.4 µM (not active)
EC50 [6]: > 120 µM (not active)

N#Cc1cc(O)c(-n2nnc3ccccc32)cc1C#N
EC50 [7]: > 79.4 µM (not active)
EC50 [8]: > 79.4 µM (not active)
EC50 [9]: > 79.4 µM (not active)

CN(c1ccccc1)S(=O)(=O)c1cccc(Cl)c1Cl
EC50 (Ion channel NompC): > 29.9 µM (not active)
EC50 (Mucolipin-3): 4.52 µM (active)

Cn1c(=O)n(Cc2ccccc2)c(=O)c2c1nc1n2CCCN1C1CCCCC1
IC50 [10]: > 100 µM (active)

CCOC(=O)c1cnc2c(-c3ccc(F)cc3)cnn2c1C(F)(F)F
IC50 [11]: 23.1 µM (active)

CC1CCN(c2ccc(-c3cccs3)nn2)CC1
EC50 [12]: 10.4 µM (active)
AC50 [13]: 30.9 µM (active)
IC50 [14]: 37.5 µM (not active)
EC50 [15]: 2.78 µM (active)
AC50 [16]: 1.43 µM (active)
AC50 [17]: 29.4 µM (active)
AC50 [18]: 0.851 µM (active)
EC50 [19]: 8.6 µM (active)

O=C(Nc1nc2ccccc2s1)c1cc(-c2ccccc2)nn1-c1ccccc1
AC50 (INS1): 3.62 µM (active)
IC50 [11]: 47.4 µM (active)
